Experiments:
Experiment in all cases: KINOMEscan
Assay type in all cases: binding
Details in all cases: read-out: % control activity remaining
EPHB3 = target: T1, EPHB3 (Homo sapiens, UniProt P54753)
T1 construct: purchased Eurofins DiscoverX KINOMEscan
T1 sequence (P54753 34-998): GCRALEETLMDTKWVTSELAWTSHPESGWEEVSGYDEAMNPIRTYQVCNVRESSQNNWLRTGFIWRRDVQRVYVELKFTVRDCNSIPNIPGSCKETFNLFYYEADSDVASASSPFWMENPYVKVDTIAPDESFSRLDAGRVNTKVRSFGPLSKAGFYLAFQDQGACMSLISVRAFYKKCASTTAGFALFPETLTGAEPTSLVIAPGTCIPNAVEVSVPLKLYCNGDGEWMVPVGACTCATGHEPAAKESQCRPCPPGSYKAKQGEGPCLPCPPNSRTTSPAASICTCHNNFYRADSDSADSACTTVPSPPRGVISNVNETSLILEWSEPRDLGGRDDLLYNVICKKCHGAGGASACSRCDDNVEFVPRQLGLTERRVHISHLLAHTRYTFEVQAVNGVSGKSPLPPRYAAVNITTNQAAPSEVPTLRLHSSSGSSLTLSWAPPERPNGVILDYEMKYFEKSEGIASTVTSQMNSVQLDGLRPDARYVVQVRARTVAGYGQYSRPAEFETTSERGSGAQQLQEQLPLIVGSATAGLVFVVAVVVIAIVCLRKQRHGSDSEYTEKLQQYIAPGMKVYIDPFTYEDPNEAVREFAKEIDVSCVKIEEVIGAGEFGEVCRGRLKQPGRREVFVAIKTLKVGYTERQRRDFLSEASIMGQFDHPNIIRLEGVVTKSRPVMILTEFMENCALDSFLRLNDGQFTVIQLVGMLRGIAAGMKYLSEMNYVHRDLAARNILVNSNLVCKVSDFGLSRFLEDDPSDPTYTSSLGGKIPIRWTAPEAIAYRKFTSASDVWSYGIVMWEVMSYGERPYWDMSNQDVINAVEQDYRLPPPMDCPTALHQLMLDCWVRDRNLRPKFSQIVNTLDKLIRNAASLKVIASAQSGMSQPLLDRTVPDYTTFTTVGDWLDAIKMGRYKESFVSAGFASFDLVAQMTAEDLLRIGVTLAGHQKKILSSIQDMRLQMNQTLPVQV

FRK = target: T2, FRK (Homo sapiens, UniProt P42685)
T2 construct: purchased Eurofins DiscoverX KINOMEscan

MYO3B = target: T3, MYO3B (Homo sapiens, UniProt Q8WXR4)
T3 construct: purchased Eurofins DiscoverX KINOMEscan
T3 sequence (Q8WXR4 1-1341): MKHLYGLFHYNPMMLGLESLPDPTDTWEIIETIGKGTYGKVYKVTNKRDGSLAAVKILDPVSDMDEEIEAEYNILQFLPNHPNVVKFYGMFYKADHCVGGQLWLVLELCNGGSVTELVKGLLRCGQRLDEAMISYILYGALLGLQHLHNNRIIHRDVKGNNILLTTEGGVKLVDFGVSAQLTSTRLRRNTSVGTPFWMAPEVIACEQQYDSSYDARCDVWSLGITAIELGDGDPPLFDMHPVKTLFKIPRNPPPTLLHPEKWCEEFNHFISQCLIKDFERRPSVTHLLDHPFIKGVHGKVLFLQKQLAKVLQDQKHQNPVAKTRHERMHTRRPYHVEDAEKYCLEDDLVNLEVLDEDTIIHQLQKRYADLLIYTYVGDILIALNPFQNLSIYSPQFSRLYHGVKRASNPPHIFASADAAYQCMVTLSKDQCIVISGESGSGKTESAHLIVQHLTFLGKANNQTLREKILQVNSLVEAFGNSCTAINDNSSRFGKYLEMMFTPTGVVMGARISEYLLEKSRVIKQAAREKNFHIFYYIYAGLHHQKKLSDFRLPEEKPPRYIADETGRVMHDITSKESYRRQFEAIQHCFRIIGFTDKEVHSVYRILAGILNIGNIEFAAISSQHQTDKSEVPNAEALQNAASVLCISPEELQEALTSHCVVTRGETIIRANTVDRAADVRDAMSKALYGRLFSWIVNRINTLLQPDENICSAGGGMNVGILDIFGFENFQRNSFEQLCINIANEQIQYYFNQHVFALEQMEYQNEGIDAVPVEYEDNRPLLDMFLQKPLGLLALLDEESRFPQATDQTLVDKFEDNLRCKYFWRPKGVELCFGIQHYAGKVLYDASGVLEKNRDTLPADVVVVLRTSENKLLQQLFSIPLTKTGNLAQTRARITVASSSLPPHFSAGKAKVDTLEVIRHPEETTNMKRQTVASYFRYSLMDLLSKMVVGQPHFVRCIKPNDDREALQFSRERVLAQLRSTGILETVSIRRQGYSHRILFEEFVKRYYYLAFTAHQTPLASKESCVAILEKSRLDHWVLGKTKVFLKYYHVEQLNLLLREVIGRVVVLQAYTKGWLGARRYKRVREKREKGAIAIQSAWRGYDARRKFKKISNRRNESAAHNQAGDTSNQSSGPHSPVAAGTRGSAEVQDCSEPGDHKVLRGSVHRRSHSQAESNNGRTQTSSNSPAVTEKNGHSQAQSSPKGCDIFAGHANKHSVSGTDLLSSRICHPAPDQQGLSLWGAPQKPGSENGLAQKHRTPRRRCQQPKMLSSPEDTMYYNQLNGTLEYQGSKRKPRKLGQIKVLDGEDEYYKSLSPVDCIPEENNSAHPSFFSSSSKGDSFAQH

T2 sequence (P42685 whole entry): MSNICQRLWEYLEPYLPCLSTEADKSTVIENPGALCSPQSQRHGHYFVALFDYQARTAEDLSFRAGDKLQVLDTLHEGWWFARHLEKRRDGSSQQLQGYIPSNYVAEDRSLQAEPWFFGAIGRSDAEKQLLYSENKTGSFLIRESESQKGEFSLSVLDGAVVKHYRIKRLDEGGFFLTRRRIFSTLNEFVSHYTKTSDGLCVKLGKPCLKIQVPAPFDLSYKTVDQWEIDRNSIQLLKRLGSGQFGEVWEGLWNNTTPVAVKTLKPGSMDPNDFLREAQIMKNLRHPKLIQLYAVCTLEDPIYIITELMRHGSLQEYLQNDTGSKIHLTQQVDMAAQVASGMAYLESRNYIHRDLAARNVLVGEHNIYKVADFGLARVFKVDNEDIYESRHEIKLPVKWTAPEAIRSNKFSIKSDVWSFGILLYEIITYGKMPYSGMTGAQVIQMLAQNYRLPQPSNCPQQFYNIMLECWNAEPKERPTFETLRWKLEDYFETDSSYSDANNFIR

Row | Compound | remaining binding at 1 µM (EPHB3) | remaining binding at 1 µM (FRK) | remaining binding at 1 µM (MYO3B)
1 | Clc1cc(NCC2CC2)c2ncc(-c3ccc4[nH]ncc4c3)n2n1 [compound 2, 6-Chloro-N-(cyclopropylmethyl)-3-(1H-indazol-5-yl)imidazo[1,2-b]pyridazin-8-amine] | 82% | 90% | 82%
2 | O=C(CN1CCOCC1)N[C@H]1CC[C@H](Nc2cc(Cl)nn3c(-c4ccc5[nH]ncc5c4)cnc23)CC1 [compound 26] | 88% | 96% | 92%
3 | CN1CCC(CNc2cc(Cl)nn3c(-c4cc5nc(Nc6ccccc6)[nH]c5cc4F)cnc23)CC1 [compound 31, 6-Chloro-3-(6-fluoro-2-(phenylamino)-1H-benzo[d]imidazol-5-yl)-N-((1-methylpiperidin-4-yl)methyl)imidazo[1,2-b]pyridazin-8-amine] | 92% | 92% | 73%
